According to PubChem BioAssay (NCI):
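In this assay, cells in 96-well plates receive the compound at five concentrations for 48 hours. Endpoints are linearly interpolated between the surrounding concentrations. At the TGI there is no net growth.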

How the values were obtained:
Test in all cases: inhibition of tumour cell growth, NCI panel, 48 h
UO-31 renal = system: UO-31 renal
HL-60(TB) leukemia = system: HL-60(TB) leukemia
BT-549 breast = system: BT-549 breast
SF-295 CNS = system: SF-295 CNS
SW-620 colon = system: SW-620 colon
SK-MEL-28 melanoma = system: SK-MEL-28 melanoma
HS 578T breast = system: HS 578T breast
SK-OV-3 ovarian = system: SK-OV-3 ovarian
OVCAR-5 ovarian = system: OVCAR-5 ovarian
SF-268 CNS = system: SF-268 CNS
OVCAR-3 ovarian = system: OVCAR-3 ovarian
UACC-62 melanoma = system: UACC-62 melanoma
SNB-75 CNS = system: SNB-75 CNS
RPMI-8226 leukemia = system: RPMI-8226 leukemia
LOX IMVI melanoma = system: LOX IMVI melanoma
MDA-N = system: MDA-N
EKVX NSCLC = system: EKVX NSCLC
HCT-116 colon = system: HCT-116 colon
HCC-2998 colon = system: HCC-2998 colon
M14 melanoma = system: M14 melanoma
SNB-19 CNS = system: SNB-19 CNS
A549 NSCLC = system: A549 NSCLC
OVCAR-4 ovarian = system: OVCAR-4 ovarian
HCT-15 colon = system: HCT-15 colon
HT29 colon = system: HT29 colon
T-47D breast = system: T-47D breast
NCI-H23 lung = system: NCI-H23 lung
MDA-MB-231 breast = system: MDA-MB-231 breast
NCI-H460 lung = system: NCI-H460 lung
U251 CNS = system: U251 CNS
NCI/ADR-RES ovarian = system: NCI/ADR-RES ovarian
SK-MEL-5 melanoma = system: SK-MEL-5 melanoma
UACC-257 melanoma = system: UACC-257 melanoma
HOP-62 NSCLC = system: HOP-62 NSCLC
SF-539 CNS = system: SF-539 CNS
TK-10 renal = system: TK-10 renal
CCRF-CEM leukemia = system: CCRF-CEM leukemia
PC-3 prostate = system: PC-3 prostate
SK-MEL-2 melanoma = system: SK-MEL-2 melanoma
MOLT-4 leukemia = system: MOLT-4 leukemia
KM12 colon = system: KM12 colon
MCF7 breast = system: MCF7 breast
MDA-MB-435 = system: MDA-MB-435
ACHN renal = system: ACHN renal
SR leukemia = system: SR leukemia
OVCAR-8 ovarian = system: OVCAR-8 ovarian
SN12C renal = system: SN12C renal
DU-145 prostate = system: DU-145 prostate
NCI-H226 lung = system: NCI-H226 lung
IGROV1 ovarian = system: IGROV1 ovarian
MALME-3M melanoma = system: MALME-3M melanoma
COLO 205 colon = system: COLO 205 colon
NCI-H522 lung = system: NCI-H522 lung
786-0 renal = system: 786-0 renal

Measured: TGI

COc1ccc(-n2sc3ncc([N+](=O)[O-])cc3c2=O)cc1
> 100 µM: all assays above
